Measurements as given in PubChem BioAssay (NCI).
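Grown in 96-well plates, cells were treated for 48 hours with each compound at five concentrations. Insufficient inhibition: endpoint recorded as highest concentration tested. TGI is the concentration that stops growth completely.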

What was measured:
Assay in all cases: DTP human tumour cell line panel, 48 h
ACHN renal = system: ACHN renal
KM12 colon = system: KM12 colon
MALME-3M melanoma = system: MALME-3M melanoma
OVCAR-8 ovarian = system: OVCAR-8 ovarian
OVCAR-5 ovarian = system: OVCAR-5 ovarian
MOLT-4 leukemia = system: MOLT-4 leukemia
UACC-257 melanoma = system: UACC-257 melanoma
A549 NSCLC = system: A549 NSCLC
HCC-2998 colon = system: HCC-2998 colon
CCRF-CEM leukemia = system: CCRF-CEM leukemia
SW-620 colon = system: SW-620 colon
SK-OV-3 ovarian = system: SK-OV-3 ovarian
HT29 colon = system: HT29 colon
M14 melanoma = system: M14 melanoma
OVCAR-3 ovarian = system: OVCAR-3 ovarian
TK-10 renal = system: TK-10 renal
MCF7 breast = system: MCF7 breast
SNB-19 CNS = system: SNB-19 CNS
COLO 205 colon = system: COLO 205 colon
NCI/ADR-RES ovarian = system: NCI/ADR-RES ovarian
UACC-62 melanoma = system: UACC-62 melanoma
MDA-MB-435 = system: MDA-MB-435
UO-31 renal = system: UO-31 renal
MDA-MB-231 breast = system: MDA-MB-231 breast
U251 CNS = system: U251 CNS
NCI-H23 lung = system: NCI-H23 lung
HCT-116 colon = system: HCT-116 colon
LOX IMVI melanoma = system: LOX IMVI melanoma
NCI-H460 lung = system: NCI-H460 lung
K-562 leukemia = system: K-562 leukemia
PC-3 prostate = system: PC-3 prostate
HOP-62 NSCLC = system: HOP-62 NSCLC
NCI-H522 lung = system: NCI-H522 lung
RPMI-8226 leukemia = system: RPMI-8226 leukemia
SF-539 CNS = system: SF-539 CNS
786-0 renal = system: 786-0 renal
HS 578T breast = system: HS 578T breast
IGROV1 ovarian = system: IGROV1 ovarian
SF-268 CNS = system: SF-268 CNS
NCI-H226 lung = system: NCI-H226 lung
RXF 393 renal = system: RXF 393 renal
T-47D breast = system: T-47D breast
EKVX NSCLC = system: EKVX NSCLC
SN12C renal = system: SN12C renal
CAKI-1 renal = system: CAKI-1 renal
HCT-15 colon = system: HCT-15 colon
SK-MEL-5 melanoma = system: SK-MEL-5 melanoma
A498 renal = system: A498 renal
OVCAR-4 ovarian = system: OVCAR-4 ovarian
SK-MEL-28 melanoma = system: SK-MEL-28 melanoma
HL-60(TB) leukemia = system: HL-60(TB) leukemia
SF-295 CNS = system: SF-295 CNS
MDA-N = system: MDA-N
DU-145 prostate = system: DU-145 prostate
BT-549 breast = system: BT-549 breast
SNB-75 CNS = system: SNB-75 CNS
HOP-92 NSCLC = system: HOP-92 NSCLC
SR leukemia = system: SR leukemia
SK-MEL-2 melanoma = system: SK-MEL-2 melanoma

CCCc1cc(COC)c(C#N)c(=O)[nH]1
TGI (ACHN renal): > 100 µM | TGI (KM12 colon): > 100 µM | TGI (MALME-3M melanoma): > 100 µM | TGI (OVCAR-8 ovarian): > 100 µM | TGI (OVCAR-5 ovarian): > 100 µM | TGI (MOLT-4 leukemia): > 100 µM | TGI (UACC-257 melanoma): > 100 µM | TGI (A549 NSCLC): > 100 µM | TGI (HCC-2998 colon): > 100 µM | TGI (CCRF-CEM leukemia): > 100 µM | TGI (SW-620 colon): > 100 µM | TGI (SK-OV-3 ovarian): > 100 µM | TGI (HT29 colon): > 100 µM | TGI (M14 melanoma): > 100 µM | TGI (OVCAR-3 ovarian): > 100 µM | TGI (TK-10 renal): > 100 µM | TGI (MCF7 breast): > 100 µM | TGI (SNB-19 CNS): > 100 µM | TGI (COLO 205 colon): > 100 µM | TGI (NCI/ADR-RES ovarian): > 100 µM | TGI (UACC-62 melanoma): > 100 µM | TGI (MDA-MB-435): > 100 µM | TGI (UO-31 renal): > 100 µM | TGI (MDA-MB-231 breast): > 100 µM | TGI (U251 CNS): > 100 µM | TGI (NCI-H23 lung): > 100 µM | TGI (HCT-116 colon): > 100 µM | TGI (LOX IMVI melanoma): > 100 µM | TGI (NCI-H460 lung): > 100 µM | TGI (K-562 leukemia): > 100 µM | TGI (PC-3 prostate): > 100 µM | TGI (HOP-62 NSCLC): > 100 µM | TGI (NCI-H522 lung): > 100 µM | TGI (RPMI-8226 leukemia): > 100 µM | TGI (SF-539 CNS): > 100 µM | TGI (786-0 renal): > 100 µM | TGI (HS 578T breast): > 100 µM | TGI (IGROV1 ovarian): > 100 µM | TGI (SF-268 CNS): > 100 µM | TGI (NCI-H226 lung): > 100 µM | TGI (RXF 393 renal): > 100 µM | TGI (T-47D breast): > 100 µM | TGI (EKVX NSCLC): > 100 µM | TGI (SN12C renal): > 100 µM | TGI (CAKI-1 renal): > 100 µM | TGI (HCT-15 colon): > 100 µM | TGI (SK-MEL-5 melanoma): > 100 µM | TGI (A498 renal): > 100 µM | TGI (OVCAR-4 ovarian): > 100 µM | TGI (SK-MEL-28 melanoma): > 100 µM | TGI (HL-60(TB) leukemia): > 100 µM | TGI (SF-295 CNS): > 100 µM | TGI (MDA-N): > 100 µM | TGI (DU-145 prostate): > 100 µM | TGI (BT-549 breast): > 100 µM

CCOC(=O)c1nc2ccc(C(F)(F)F)cc2nc1NCc1ccc(OC)c(OC)c1
TGI (ACHN renal): > 100 µM | TGI (SNB-75 CNS): > 100 µM | TGI (KM12 colon): > 100 µM | TGI (MALME-3M melanoma): > 100 µM | TGI (OVCAR-8 ovarian): > 100 µM | TGI (HOP-92 NSCLC): > 100 µM | TGI (SR leukemia): > 100 µM | TGI (OVCAR-5 ovarian): > 100 µM | TGI (MOLT-4 leukemia): > 100 µM | TGI (UACC-257 melanoma): > 100 µM | TGI (A549 NSCLC): > 100 µM | TGI (CCRF-CEM leukemia): > 100 µM | TGI (SW-620 colon): > 100 µM | TGI (SK-OV-3 ovarian): > 100 µM | TGI (HT29 colon): > 100 µM | TGI (M14 melanoma): > 100 µM | TGI (OVCAR-3 ovarian): > 100 µM | TGI (TK-10 renal): > 100 µM | TGI (MCF7 breast): > 100 µM | TGI (SNB-19 CNS): > 100 µM | TGI (COLO 205 colon): > 100 µM | TGI (NCI/ADR-RES ovarian): > 100 µM | TGI (UACC-62 melanoma): > 100 µM | TGI (SK-MEL-2 melanoma): 86.1 µM | TGI (MDA-MB-435): > 100 µM | TGI (UO-31 renal): > 100 µM | TGI (MDA-MB-231 breast): > 100 µM | TGI (U251 CNS): > 100 µM | TGI (NCI-H23 lung): > 100 µM | TGI (HCT-116 colon): > 100 µM | TGI (LOX IMVI melanoma): > 100 µM | TGI (NCI-H460 lung): > 100 µM | TGI (K-562 leukemia): > 100 µM | TGI (PC-3 prostate): > 100 µM | TGI (HOP-62 NSCLC): > 100 µM | TGI (NCI-H522 lung): > 100 µM | TGI (RPMI-8226 leukemia): > 100 µM | TGI (SF-539 CNS): > 100 µM | TGI (786-0 renal): > 100 µM | TGI (HS 578T breast): > 100 µM | TGI (IGROV1 ovarian): > 100 µM | TGI (SF-268 CNS): > 100 µM | TGI (NCI-H226 lung): > 100 µM | TGI (RXF 393 renal): > 100 µM | TGI (T-47D breast): > 100 µM | TGI (EKVX NSCLC): > 100 µM | TGI (CAKI-1 renal): > 100 µM | TGI (HCT-15 colon): > 100 µM | TGI (SK-MEL-5 melanoma): > 100 µM | TGI (A498 renal): > 100 µM | TGI (OVCAR-4 ovarian): > 100 µM | TGI (HL-60(TB) leukemia): > 100 µM | TGI (SF-295 CNS): > 100 µM | TGI (MDA-N): > 100 µM | TGI (BT-549 breast): > 100 µM
